Consider 13 compounds from patent publication US20240352016A1, “A CYCLIN-DEPENDENT KINASE INHIBITOR” (TAIZHOU EOC PHARMA CO., LTD., priority 2021, published 2024).

pIC50: −log10 of the molar value. Counter-ions that a name gives are not always drawn.

T1 sequence (P50613 whole entry): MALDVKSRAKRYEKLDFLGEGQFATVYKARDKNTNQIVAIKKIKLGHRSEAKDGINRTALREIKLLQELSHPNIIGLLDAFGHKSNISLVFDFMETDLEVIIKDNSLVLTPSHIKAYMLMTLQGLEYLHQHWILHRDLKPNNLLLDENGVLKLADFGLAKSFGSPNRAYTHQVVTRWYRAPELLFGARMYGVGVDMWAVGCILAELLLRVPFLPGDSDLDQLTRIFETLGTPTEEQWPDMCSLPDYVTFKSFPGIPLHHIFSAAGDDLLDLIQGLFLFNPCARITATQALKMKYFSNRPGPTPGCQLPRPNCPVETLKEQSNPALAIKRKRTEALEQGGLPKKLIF
T1 sequence (P51946 whole entry partner): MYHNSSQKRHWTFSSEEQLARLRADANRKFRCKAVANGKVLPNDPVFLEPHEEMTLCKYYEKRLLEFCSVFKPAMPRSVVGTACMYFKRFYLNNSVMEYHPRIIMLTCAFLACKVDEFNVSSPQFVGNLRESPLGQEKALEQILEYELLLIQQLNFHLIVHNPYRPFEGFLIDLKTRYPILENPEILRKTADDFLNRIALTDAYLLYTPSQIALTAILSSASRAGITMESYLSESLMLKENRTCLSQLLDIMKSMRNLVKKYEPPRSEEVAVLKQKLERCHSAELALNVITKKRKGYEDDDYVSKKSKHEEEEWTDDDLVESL
T1 sequence (P51948 whole entry partner): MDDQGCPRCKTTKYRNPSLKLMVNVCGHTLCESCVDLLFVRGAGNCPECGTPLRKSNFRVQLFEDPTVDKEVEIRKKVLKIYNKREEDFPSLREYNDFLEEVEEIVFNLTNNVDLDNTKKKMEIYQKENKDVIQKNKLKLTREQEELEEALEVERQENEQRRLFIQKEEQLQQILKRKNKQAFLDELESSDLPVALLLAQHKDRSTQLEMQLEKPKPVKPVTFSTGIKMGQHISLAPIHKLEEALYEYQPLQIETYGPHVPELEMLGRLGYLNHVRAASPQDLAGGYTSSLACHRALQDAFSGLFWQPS

This test has as its target T1, CDK7/Cyclin H/MAT1 (Homo sapiens, UniProt P50613).
T1 construct: made in house; host or cells: insect cell
Nature of the test: CDK kinase activity mobility shift assay (MSA). The settings on record: The CDK may be CDK7; mobility shift assay, 2 mM ATP, 3 nM CDK/Cyclin, 27° C. for 40 min; read-out: IC50 (CDK inhibition). The format is biochemical. Here is the method:
Human CDKs, cyclins and other partner proteins were expressed in insect cell, purified individually, reconstituted and then purified to homogeneity before being used for kinase activity assay.
Kinase activity of CDKs were determined by mobility shift assay (MSA), in which the formation of a phosphorylated fluorescence-labelled peptide in reaction mixture was monitored through capillary electrophoresis in a microfluidic environment. […] The mixtures were incubated at 27° C. for 40 min before being quenched with 4 μl 80 mM EDTA, then read on a LabChip EZ Reader II (Caliper Life Science). IC50 of compound for CDKs was calculated by Prism (GraphPad) using a four-parameter nonlinear curve fit.
For the compound `CC(C)n1cnc2c(NCc3ccccc3-n3ccc(CO)n3)nc(N3CCC(N)CC3)nc21` [Compound I-1, (1-(2-(((2-(4-aminopiperidin-1-yl)-9-isopropyl-9H-purin-6-yl)amino)methyl)phenyl)-1H-pyrazol-3-yl)methanol], the pIC50 – broadly, the IC50 on a negative log10 scale, so that one unit is a factor of ten – was over 7.00.

For `CC(C)n1cnc2c(NCc3ccccc3-n3cccn3)nc(N3CCC(C4CCNCC4)CC3)nc21` [Compound I-5, N-(2-(1H-pyrazol-1-yl)benzyl)-2-([4,4′-bipiperidin]-1-yl)-9-isopropyl-9H-purin-6-amine hydrochloride], the pIC50 was 6.30 to 7.00. On to `CC(C)n1cnc2c(NCc3ccccc3-n3cccn3)nc(N3CC[C@H](N)C3)nc21` [Compound I-9, (S)—N-(2-(1H-pyrazol-1-yl)benzyl)-2-(3-aminopyrrolidin-1-yl)-9-isopropyl-9H-purin-6-amine], for which the pIC50 was over 7.00.

For the compound `CC(C)n1cnc2c(NCc3ccccc3-n3cccn3)nc(N3CCC[C@@H](N)C3)nc21` [Compound I-11, (R)—N-(2-(1H-pyrazol-1-yl)benzyl)-2-(3-aminopiperidin-1-yl)-9-isopropyl-9H-purin-6-amine], the pIC50 is over 7.00. For the compound `CC(C)n1cnc2c(NCc3ccccc3-n3cccn3)nc(N[C@H]3CCCNC3)nc21` [Compound I-13, (S)-N6-(2-(1H-pyrazol-1-yl)benzyl)-9-isopropyl-N2-(piperidin-3-yl)-9H-purine-2,6-diamine], the pIC50 is 6.30 to 7.00. Under `CC(C)n1cnc2c(NCc3ccccc3-n3cccn3)nc(NCC3(O)CCNCC3)nc21` [Compound I-14, 4-(((6-((2-(1H-pyrazol-1-yl)benzyl)amino)-9-isopropyl-9H-purin-2-yl)amino)methyl)piperidin-4-ol trihydrochloride] stands 6.30 to 7.00.

For the compound `CC(C)n1cnc2c(NCc3ccccc3-n3cccn3)nc(N3CCC(C(=O)N(C)C)CC3)nc21` [Compound I-15, 1-(6-((2-(1H-pyrazol-1-yl)benzyl)amino)-9-isopropyl-9H-purin-2-yl)-N,N-dimethylpiperidine-4-carboxamide], the negative-log IC50 (pIC50) is under 6.00. Under `CC(C)n1cnc2c(NCc3ccccc3-n3ccc(C(C)(C)O)n3)nc(NC3CCNCC3)nc21` [Compound I-17, 2-(1-(2-(((9-isopropyl-2-(piperidin-4-ylamino)-9H-purin-6-yl)amino)methyl)phenyl)-1H-pyrazol-3-yl)propan-2-ol] stands over 7.00; under `CC(C)n1cnc2c(NCc3c(Cl)cccc3-n3ccc(C(C)(C)O)n3)nc(NC3CCNCC3)nc21` [Compound I-18, 2-[1-[3-chloro-2-[[[9-isopropyl-2-(4-piperidylamino)purin-6-yl]amino]methyl]phenyl]pyrazol-3-yl]propan-2-ol], over 7.00; under `CCN(CC)C1CCN(c2nc(NCc3ccccc3-n3cccn3)c3ncn(C(C)C)c3n2)CC1` [Compound I-20, 2-[4-(diethylamino)-1-piperidyl]-9-isopropyl-N-[(2-pyrazol-1-ylphenyl)methyl]purin-6-amine], over 7.00. With `CC(C)n1cnc2c(NCc3ccccc3-n3cccn3)nc(NC(=O)C3CCNCC3)nc21` [Compound I-21, N-(6-((2-(1H-pyrazol-1-yl)benzyl)amino)-9-isopropyl-9H-purin-2-yl)piperidine-4-carboxamide], the pIC50 is under 6.00. Under `CC(C)n1cnc2c(NCc3c(F)cccc3-n3cccn3)nc(N3CCC(N)CC3)nc21` [Compound I-24, 2-(4-aminopiperidin-1-yl)-N-(2-fluoro-6-(1H-pyrazol-1-yl)benzyl)-9-isopropyl-9H-purin-6-amine hydrochloride] stands over 7.00; under `NC1CCN(c2nc(NCc3ccccc3-n3cccn3)c3ncn(C4CCCC4)c3n2)CC1` [Compound I-25, N-(2-(1H-pyrazol-1-yl)benzyl)-2-(4-aminopiperidin-1-yl)-9-cyclopentyl-9H-purin-6-amine], over 7.00.
